According to patent publication US20090275503A1, “DIASTEREOMERIC PEPTIDES FOR MODULATING T CELL IMMUNITY” (Yeda Research and Developent Co., Ltd. at the Weizman …, priority 2005, published 2009):
Non-standard residues stand in square brackets, D forms with d. No end group written: not given here.

System: TCR
Test: Fluorescence microscopy: co-localization and fluorescence energy transfer with TCR on activated A2b T cells
Assay type: binding, rat
Procedure: Activated A2b T cells (van Eden et al., 1988) (10^5 cells/sample) were incubated in 100 μl of PBS containing Para-formaldehyde 4% for 15 min on ice. The samples were then washed with cold PBS and centrifuged for 7 min at 1100 rpm. PBS containing BSA 1% was then added at room temperature to prevent non-specific binding. After 30 min FITC-labeled antibody against TCR was added at dilution of 1:100 and incubated for 2.5 hr. For co-localization of TCR with the peptide, Rhodamine 2D-CP was added at a final concentration of 1 μM (stock in DMSO) and incubated for 5 min. Sample were then washed once with PBS and loaded on a microscope slide.
The cells were then observed under a fluorescent confocal microscope. […] Fluorescence data was collected from 505-525 nm. […] Fluorescence data was collected from 560 nm and up.
Fluorescence energy transfer between the FITC (donor) and rhodamine (acceptor) was detected as an increase in FITC fluorescence in an area where the rhodamine probe was bleached. […] To verify that the increase in FITC fluorescence is not due to auto fluorescence, bleaching was performed using the 488 nm laser first and only then at 543 nm. […]
To confirm these co-localization results, the inventors performed fluorescence energy transfer experiments between Rhodamine 2D-CP and αTCR-FITC. […] To rule out auto-fluorescence as a source of increased signal in the […] range, two controls were used. […]

GLRILLLKV [2D-CP] (GL[dR]ILLL[dK]V-NH2; also: rhodamine label, position not given here) [CP diastereomer]
Co-localization with the TCR on the T-cell membrane (rhodamine-labeled peptide 1 μM, αTCR-FITC, activated A2b T cells): co-localizes with the TCR | Fluorescence energy transfer between rhodamine peptide and αTCR-FITC after bleaching at 543 nm (rhodamine-labeled peptide, point bleach 6 sec): significant increase in the fluorescence of the αTCR-FITC
